A short description of experiment [1]: Inhibition of IL-1beta, IFN-gamma and TNF-alpha-induced apoptosis of rat INS-1E cells assessed as restoring cell viability after 48 hrs by luciferase based CellTiter-Glo assay. Format: functional.
The nature of experiment [2]: Inhibition of IL-1beta, IFN-gamma and TNF-alpha-induced apoptosis of rat INS-1E cells assessed as maximum activity to restoring cell viability after 48 hrs by luciferase based CellTiter-Glo assay. Format: functional.
Experiment [3] relates to INS-1E. As to the kind of experiment: Inhibition of IL-1beta, IFN-gamma and TNF-alpha-induced apoptosis of rat INS-1E cells assessed as decrease in nitrite production after 48 hrs by Griess assay. Format: functional, cell-based.
Experiment [4] has as its system INS-1E. In words: Inhibition of IL-1beta, IFN-gamma and TNF-alpha-induced apoptosis of rat INS-1E cells assessed as restoration of mitochondrial membrane potential at 0.25 to 5 uM after 48 hrs by JC-1 staining analysis. Format: functional, cell-based.
The test system of experiment [5] is INS-1E. In words: Inhibition of IL-1beta, IFN-gamma and TNF-alpha-induced apoptosis of rat INS-1E cells assessed as decrease in caspase-3 activity after 48 hrs by luminescence assay. Format: functional, cell-based.
The test system of experiment [6] is INS-1E. In words: Inhibition of IL-1beta, IFN-gamma and TNF-alpha-induced apoptosis of rat INS-1E cells assessed as glucose-stimulated insulin secretion at 5 uM after 48 hrs by ELISA. Format: functional, cell-based.

The source made the active and inactive calls. The calls are words filed in the database; no cut-off is given here. Some results are limits rather than exact numbers.

`C[C@@H]1CN([C@@H](C)CO)C(=O)c2cccc(NC(=O)Nc3cccc(Cl)c3Cl)c2O[C@H]1CN(C)S(=O)(=O)c1ccc2c(c1)OCCO2`: the EC50 in experiment [1] is more than 20 µM. Further, the Activity in experiment [2] was 0%.

With `CC(C)N1C[C@@H](C)[C@H](CN(C)S(=O)(=O)c2ccc3c(c2)OCCO3)Oc2c(NC(=O)Nc3cccc4ccccc34)cccc2C1=O`, the EC50 in experiment [1] was 2.79 µM. Besides, the Activity in experiment [2] was 89%.

As to `C[C@@H]1CN([C@@H](C)CO)C(=O)c2cccc(NC(=O)Nc3cccc4ccccc34)c2O[C@H]1CN(C)S(=O)(=O)c1ccc2c(c1)OCCO2`, the inhibition result in experiment [3] and in experiment [5] was “Dose-dependent effect” in each case. For the same compound, the inhibition result in experiment [4] and in experiment [6] was “Active” throughout. Also, the EC50 in experiment [1] was found to be 0.78 µM. In addition, the Activity in experiment [2] was 99%.

Turning to `COc1ccc(S(=O)(=O)N(C)C[C@@H]2Oc3c(NC(=O)Nc4cccc5c4CCCC5)cccc3C(=O)N([C@@H](C)CO)C[C@H]2C)cc1`, in experiment [1], the EC50 is more than 20 µM. In addition, the Activity in experiment [2] was found to be 0%.

Turning to `COc1ccc(S(=O)(=O)N(C)C[C@@H]2Oc3c(NC(=O)Nc4cccc5ccccc45)cccc3C(=O)N([C@@H](C)CO)C[C@H]2C)cc1`, the EC50 in experiment [1] was determined as 4.89 µM. Besides, the Activity in experiment [2] stood at 62%.

Turning to `COc1cccc(S(=O)(=O)N(C)C[C@@H]2Oc3c(NC(=O)Nc4cccc5ccccc45)cccc3C(=O)N([C@@H](C)CO)C[C@H]2C)c1`, the EC50 in experiment [1] is more than 20 µM. Besides, the Activity in experiment [2] was 0%.

With `COc1ccc(S(=O)(=O)N(C)C[C@@H]2Oc3c(NC(=O)Nc4cccc5ccccc45)cccc3C(=O)N(C(C)C)C[C@H]2C)cc1`, the EC50 in experiment [1] came to 3.06 µM. For the same compound, in experiment [2], the Activity came to 76%.

Take `COc1ccccc1S(=O)(=O)N(C)C[C@@H]1Oc2c(NC(=O)Nc3cccc4ccccc34)cccc2C(=O)N([C@@H](C)CO)C[C@H]1C`: the EC50 in experiment [1] is more than 20 µM. Besides, in experiment [2], the Activity is reported as 0%.

With `C[C@@H]1CN([C@@H](C)CO)C(=O)c2cccc(NC(=O)Nc3cccc4ccccc34)c2O[C@H]1CN(C)S(=O)(=O)c1ccc(Oc2ccccc2)cc1`, the EC50 in experiment [1] was more than 20 µM. In experiment [2], the Activity was 0%.

In the case of `COc1ccc(S(=O)(=O)N(C)C[C@@H]2Oc3c(NC(=O)Nc4ccc5occc5c4)cccc3C(=O)N([C@@H](C)CO)C[C@H]2C)cc1`, the EC50 in experiment [1] was more than 20 µM. The Activity in experiment [2] is on record as 0%.

`COc1ccc(S(=O)(=O)N(C)C[C@@H]2Oc3c(NC(=O)NC4CCCc5ccccc54)cccc3C(=O)N([C@@H](C)CO)C[C@H]2C)cc1` (stereo partly drawn): in experiment [1], the EC50 was more than 20 µM. Also, the Activity in experiment [2] is given as 0%.

Consider `COc1ccc(S(=O)(=O)N(C)C[C@@H]2Oc3c(NC(=O)Nc4cccc5ccccc45)cccc3C(=O)N([C@@H](C)CO)C[C@H]2C)cc1C`, for which the EC50 in experiment [1] was 3.5 µM. Moreover, in experiment [2], the Activity is on record as 76%.

Source of the values: ChEMBL document CHEMBL2010751, “Synthesis of a novel suppressor of beta-cell apoptosis via diversity-oriented synthesis” (ACS Med Chem Lett, 2011).
